In US20200316159A1, “SUSTAINED RELEASE COMPOSITIONS OF KAPPA-OPIOID RECEPTOR AGONIST” (JT PHARMACEUTICALS, INC., priority 2016, published 2020):
Non-standard residues stand in square brackets, D forms with d. Residues, ends and D or L forms follow the SMILES beside them. *: point of attachment. NH(4-picolyl) = c1cc(CN*)ccn1; dNle = CCCC[C@@H](N)C(=O)O

Legend:
[1] = biological target: kappa opioid receptor (Homo sapiens, UniProt P41145); experiment: Opioid receptor activation assay, DiscoveRx PathHunter Beta-Arrestin, kappa; assay type: cell-based; conditions: PathHunter Beta-Arrestin; for EC50: 3-6 repeats, read-out: 95% confidence levels of EC50, activation of kappa receptors
Text: Opioid Receptor Activation Assay.
PathHunter™ Beta-Arrestin GPCR Functional Profiling and Screening cell lines that express the individual opioid receptors were obtained from DiscoveRx (Fremont, Calif.). These cells express the kappa (or mu or delta) opioid receptor fused to a proprietary β-galactosidase enzyme fragment and the […]-arrestin gene fused to an enzyme acceptor (the remaining fragment of β-galactosidase). Upon activation of the receptor, β-arrestin is recruited to the GPCR and the β-galactosidase is activated through enzyme complementation. Cells were grown using standard cell culture techniques and then plated at 30,000 cells/well in 90 μl in a 96 well white, clear bottom plate and incubated overnight. Dilutions were prepared in dilution buffer (HBBS, 20 mMHepes, 0.1% BSA) and 10 μl added per well. Plates were then incubated for 90 min at 37° C. in a water-saturated atmosphere. Plates were then allowed to come to room temp and DiscoveRx's proprietary developing agent added as recommended by the manufacturer. This agent contains a detergent, 6-O-β-galactopyranosyl-luciferen and luciferase. Plates were then incubated for 1 hr at room temperature before being read on a luminometer. Antagonist studies were performed in an identical manner except after the overnight incubation 10 μl media was removed and replaced with drug or naloxone at the indicated concentration. […] To calculate % maximal luminescence, background was subtracted from the experimental values and this was divided by maximal luminescence and multiplied by 100.
To confirm this, and to determine their relative activities, we assessed their efficiency using PathHunter™ Beta-Arrestin GPCR Functional Profiling and Screening cell lines from DiscoveRx (Fremont, Calif.) as described in the Materials and Methods section.

[2] = tested on: peripheral pain (acetic acid-induced writhing); experiment: Acetic acid-induced writhing model (Example 1); assay type: in vivo, rat (male Sprague-Dawley); conditions: oral gavage, screening dose 20 mg/kg, 20 min before i.p. 3% acetic acid; Student's t-test p<0.05
Protocol: Acetic Acid-Induced Writhing Model.
This protocol is a well-established model of peripheral pain. Following oral or i.v. administration of compound, rats are rested for 20 min before i.p. injection with 2 ml/kg of 3% acetic acid. Animals are then rested an additional 10 min before being placed in a 10×10 inch chamber. A video of the rats is then recorded for next 20 min. The video is subsequently blindly scored by an investigator who examines each rat every 20 sec for the entire 20 min (60 individual observations). At each observation rats are scored on whether they are writhing or not. Writhing is defined as a constriction of the abdominal area, often with extension of the hind legs. At the end of the experiment the percent of the time the animal was writhing was calculated. The dose-response curves and EC50 values were generated using GraphPad Prism®.
As an initial biological screen the potential for oral availability of the 18 peptides in our library were evaluated in a well-established model of peripheral pain, the acetic acid-induced writhing assay. Rats were administered the various compounds by oral gavage at a screening dose of 20 mg/kg 20 min before i.p. injection with 2 ml/kg of 3% acetic acid. 10 min later animals were assessed for writhing as indicated in the methods section. […] Thus, several of the Arg modifications can impart CR665 with the ability to cross the gut barrier. Compounds 3, 7, 9, 11 and 17 were selected for further analysis.

[3] = tested on: abuse liability (lever pressing for intravenous drug delivery); experiment: Self-administration model; assay type: in vivo, rat; conditions: cocaine 50 ug/50 ul bolus infusion, 7 days, after replacing JT09
Text: Self-Administration Model.
Addiction/dependence is a critical side effect of opioids and must be evaluated with any new member of this family. The most reliable test of abuse liability with the most translational relevance is a contingent drug self-administration model, in which rats are trained to press a lever for intravenous drug delivery. Sixteen standard self-administration chambers (30×20×20 cm, Med Associates) were housed inside sound-attenuating cubicles fitted with a fan for airflow and to mask noise. Each chamber contained two retractable levers, two stimulus lights, a speaker for tone delivery, and a house light to provide general illumination. In addition, each chamber was equipped with a balanced metal arm and spring leash attached to a swivel (Instech). Tygon® tubing extended through the leash and was connected to a 10 ml syringe mounted on an infusion pump located outside the sound-attenuating cubicle. Rats were anesthetized with i.p. injections of ketamine (66 mg/kg; Vedcolnc, St Joseph, Mo., USA), xylazine (1.3 mg/kg; Lloyd Laboratories, Shenandoah, Iowa, USA), and equithesin (0.5 ml/kg); sodium pentobarbital (4 mg/kg), chloral hydrate (17 mg/kg), and 21.3 mg/kg magnesium sulfate heptahydrate dissolved in 44% propylene glycol, 10% ethanol solution). Ketorolac (2.0 mg/kg, i.p. Sigma, St. Louis, Mo., USA) was given just prior to surgery as an analgesic. One end of a silastic catheter was inserted 33 mm into the external right jugular and secured with 4.0 silk sutures. The other end ran subcutaneously and exited from a small incision just below the scapula. This end is attached to an infusion harness (Instech Solomon, Plymouth Meeting, Pa., USA) that provides access to an external port for IV drug delivery. […]
During self-administration, rats received an IV infusion (0.1 ml) of 10 U/ml heparinized saline before each session. […] Cocaine was chosen for comparison purposes because it is readily self-administered.

[4] = tested on: central pain (acute thermal stimuli); experiment: Hotplate model (Example 1); assay type: in vivo, rat (male Sprague-Dawley); conditions: morphine at 5 mg/kg
Protocol: The hotplate model evaluates central pain attenuation in a rodent after applying an acute thermal stimuli. The rat is treated with compound and assessed over time on a hotplate analgesia meter (Columbus Instruments, Columbus, Ohio), essentially a flat surface maintained at 53.0+/−0.2° C. The time until the rat lifts, nibbles or shakes one of its hind paws is recorded, which is known as the response latency. Animals remain on the hotplate no longer than 30 sec to avoid tissue damage. Experiments are scored as the percent of maximal possible effect (% MPE) calculated using the following equation: % MPE=[(post-drug latency−pre-drug latency)/(cut-off pre-drug latency)]×100%. The dose response curves and EC50 values were generated using GraphPad Prism®.
As discussed, central availability of a kappa agonist can lead to undesirable side effects. To assess the peripheral to central selectivity of compound 9 an i.v. dose response of this drug was performed in both a model of peripheral pain (A. the writhing assay) and central pain (B. the hotplate assay). The ratio of EC50s for each of these assays can then be used to determine the peripheral selectivity of the drug.

[5] = tested on: central pain (acute thermal stimuli); experiment: Hot plate model (Example 2); assay type: in vivo, rat; conditions: JT compounds 20 mg/kg oral; morphine 10 mg/kg i.p.
Protocol: The hotplate model evaluates central pain attenuation in a rodent after applying an acute thermal stimuli. Experimental rats were orally gavaged with lead compounds JT07 or JT09 (20 mg/kg) and rested for 20 min prior to being placed on the hotplate. Control rats received i.p. injections of morphine (10 mg/kg) and rested for 20 min prior to be being placed on the hotplate. Rats were then assessed over time on a hotplate analgesia meter (Columbus Instruments, Columbus, Ohio), essentially a flat surface maintained at 53.0+/−0.2° C. The time until the rat lifted, nibbled, or shook one of its hind paws was recorded, which is known as the response latency. Animals remained on the hotplate no longer that 30 sec to avoid tissue damage. Experiments were scored as the percent of maximal possible effect (% MPE) calculated using the following equation: % MPE=[(post-drug latency−pre-drug latency)/(cut-off pre-drug latency)]×100%. The dose response curves and EC50 values were generated using GraphPad Prism.
As an initial screen for analgesic activity, JT07 and JT09 were evaluated in the hotplate analgesic model using a standard oral dose of 20 mg/kg. Percent maximum possible effect was analyzed for each compound and compared to morphine (10 mg/kg, i.p.).

[6] = tested on: sedation (distance traveled); experiment: Locomotor open field test; conditions: JT09 20 mg/kg p.o.; morphine 10 mg/kg i.p.
Protocol: Locomotor Open Field Test.
Sedation and a loss of muscle coordination are common CNS-mediated side effects of opioids. To assess the sedative effects of JT09, rats were given JT09 (20 mg/kg, p.o.) or morphine (10 mg/kg, i.p.) 20 min before placement in an automated (68 l×21 w×21 h cm) activity chambers for a 30 min test. Morphine was used as a comparison group due to its well-known sedative effects.

Chain of kappa opioid receptor (P41145 whole entry): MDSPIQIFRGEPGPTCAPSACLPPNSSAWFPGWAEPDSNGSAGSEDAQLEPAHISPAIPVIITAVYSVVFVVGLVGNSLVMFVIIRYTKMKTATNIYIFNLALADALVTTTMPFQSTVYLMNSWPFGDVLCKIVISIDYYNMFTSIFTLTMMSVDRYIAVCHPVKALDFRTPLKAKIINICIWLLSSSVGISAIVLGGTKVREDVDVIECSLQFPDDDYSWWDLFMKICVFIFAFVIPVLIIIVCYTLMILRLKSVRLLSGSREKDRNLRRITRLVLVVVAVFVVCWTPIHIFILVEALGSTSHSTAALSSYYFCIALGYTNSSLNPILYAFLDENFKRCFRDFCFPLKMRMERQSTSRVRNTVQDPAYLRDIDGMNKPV

Row | Structure (SMILES) | EC50, activation of kappa opioid receptor [1] | EC50 [1] | further results
1 | CCCCNC(=N)NCCC[C@@H](NC(=O)[C@@H](CCCC)NC(=O)[C@@H](Cc1ccccc1)NC(=O)[C@H](N)Cc1ccccc1)C(=O)NCc1ccncc1 [Compound 3] | low nM range | 1.38 to 18.7 nM | 
2 | CCCC[C@@H](NC(=O)[C@@H](Cc1ccccc1)NC(=O)[C@H](N)Cc1ccccc1)C(=O)N[C@H](CCCNC(=N)N)C(=O)NCc1ccncc1 [CR665, D-Phe-D-Phe-D-Nle-D-Arg-NH-4-Picolyl, reference compound] (H-[dF][dF][dNle][dR]-{NH(4-picolyl)}) | low nM range | 9.07 to 13.1 nM | effect on writhing (outward physical signs of peripheral pain) versus saline control [2]: did not have a significant effect
3 | CCCC[C@@H](NC(=O)[C@@H](Cc1ccccc1)NC(=O)[C@H](N)Cc1ccccc1)C(=O)N[C@H](CCC[N+](C)(C)C)C(=O)NCc1ccncc1 [Compound 17] | low nM range | 47.2 to 166 nM | 
4 | COC(=O)[C@H]1[C@@H](OC(=O)c2ccccc2)C[C@@H]2CC[C@H]1N2C [cocaine, reference compound] |  |  | number of cocaine infusions (nose-poke) [3]: increased over the 7 days
5 | CN1CC[C@]23c4c5ccc(O)c4O[C@H]2[C@@H](O)C=C[C@H]3[C@H]1C5 [morphine] |  |  | time of maximum response in hotplate assay [4]: 15 min; analgesic activity in hotplate model (% maximum possible effect) [5]: potent analgesic; sedation in locomotor test [6]: highly sedative
6 | CCCC[C@@H](NC(=O)[C@@H](Cc1ccccc1)NC(=O)[C@H](N)Cc1ccccc1)C(=O)N[C@H](CCCCNCc1ccccc1)C(=O)NCc1ccncc1 [Compound 11] | low nM range | 8.15 to 26.8 nM | 
7 | CCCC[C@@H](NC(=O)[C@@H](Cc1ccccc1)NC(=O)[C@H](N)Cc1ccccc1)C(=O)N[C@H](CCCCNC1CCCCC1)C(=O)NCc1ccncc1 [Compound 7] | low nM range | 5.63 to 13.1 nM | 
